Reference: patent US6001880A, “Alkylenediamine derivative, anti-ulcer drug, and antibacterial drug” (Shiseido Co., Ltd., priority 1997, dated 1999)

What was measured:
[1] = system: isolated gastric fundic gland; assay: CAP: Acid Secretion Inhibition Test In Vitro ([14C]-aminopyrine uptake); type: cell-based, rabbit (male Japanese White); conditions: Oryctolagus cuniculus; final concentration 10^-5 M; histamine 10^-5 M stimulation; read-out: CAP: acid secretion inhibitory rate
Experimental: CAP: Acid Secretion Inhibition Test In Vitro
The acid secretion inhibitory activity in a cell level is studied. It can also be used for studying the mechanism of the effect.
First, an isolated gastric fundic gland sample was prepared. Namely, a male Japanese White rabbit (2.5 to 3 kg) was anesthetized to death with Nembutal™ and then the abdomen was incised. Immediately thereafter, the stomach was removed and, after its pyloric and cardiac antrum were severed, incised along its greater curvature into two sheets. The gastric contents adhering to the mucosal surface was washed out with ice-cooled PBS (-) and then carefully washed therein. The gastric wall was spread on a cork board with its mucosal surface facing up and the feed and mucus thereon were completely removed with sterile gauze. The mucosa was separated therefrom by a spatula and then collected in ice-cooled PBS (-). After being washed twice with PBS (-), the mucosa was minced into 2-3 mm^3 pieces by scissors. These pieces were further washed twice with a nutrient solution. The nutrient solution comprises 132.4 mM of NaCl, 5.4 mM of KCl, 5 mM of Na2 HPO4. 12H2 O, 1 mM of NaH2 PO4.2H2 O, 1.2 mM of MgSO4, 1 mM of CaCl2, 25 mM of HEPES, 2 mg/ml of glucose, and 1 mg/ml of BSA.
Into 70 ml of the nutrient solution containing 1 mg/ml of collagenase, minced mucosal pieces were dispersed and intensely stirred in a conical flask with a stirrer at 37° C. for 40 to 60 minutes. During this period, 100% O2 was sprayed on the nutrient solution surface and the pH was appropriately measured such that it was immediately adjusted to pH 7.4, when the value was therebelow, with a base. The nutrient solution was added to the reaction solution so as to attain the total amount of about 200 ml. After being filtered through a mesh, the suspension was divisionally introduced into 50 ml centrifuge tubes and left for 15 minutes such that gastric fundic gland was deposited. The supernatant was repeatedly removed by an aspirator, dispersed in the nutrient solution, and then left such that the gastric fundic gland was washed three times. At this time, without using a pipette, the suspension was alternately introduced into two centrifuge tubes so as to effect dispersion. The number of cells was counted under microscope and adjusted to 1.6×10^6 cells/ml.
Then, [^14 C]-aminopyrine uptake test was performed. After an Eppendorf tube was weighed, 10 μl (final concentration: 10^-5 M) of histamine dissolved in the above-mentioned nutrient solution, 10 μl (final concentration: […]) of the test compound dissolved in DMSO, and 10 μl (final concentration: 0.05 μCi/ml) of [^14 C]-aminopyrine diluted with the nutrient solution were introduced therein and then 970 μl of the isolated gastric fundic gland suspension prepared above was added thereto. Subsequently, this mixture was shaken at 37° C. for 40 minutes at 125 cycles/minute. After being centrifuged for 30 seconds, 200 μl of its supernatant was collected into a mini-vial, while the rest was removed by an aspirator. The gland pellet was completely dried as the tube with its lid being opened was kept for one night in a drying oven at 80° C. and then the lid was closed and the weight was determined at room temperature. Then 100 μl of 1N KOH was added thereto and the tube with its lid being closed was treated at 60° C. for 1 to 2 hours so as to dissolve the pellet. Then, the contents thereof were transferred to a mini-vial. Into the mini-vial containing the supernatant or gland pellet, 4 ml of Atomlite™ was added and then the radioactivity was measured by a liquid scintillation counter. Here, after the radioactivity of the gland pellet was corrected by using a sample in which 20 mM of NaSCN was added so as to cancel the hydrogen ion concentration gradient, the integration ratio of aminopyrine specifically trapped by the gland pellet was calculated. This experiment was performed in duplicate.
Here, its principle will be briefly explained. […]

[2] = MTT: Cell Damaging and Protecting Effect Test; type: cell-based, rabbit (male Japanese White); conditions: rabbit, gastric corpus mucosa cells, final concentration 10^-4 M, smaller value is better, read-out: MTT: cell damaging rate
Source text: MTT: Cell Damaging and Protecting Effect Test
It is confirmed that there is no toxicity in cell level. Those having a toxicity in cell level are inappropriate as an anti-ulcer drug.
A male Japanese White rabbit (2.5 to 3 kg) was anesthetized to death by Nembutal™ and, immediately thereafter, its stomach was removed. The greater curvature of the stomach was incised so as to remove the stomach contents therefrom. After the mucosal surface was washed with HBSS (Hanks' Balanced Salt Solution), the stomach in ice-cooled HBSS was transferred to a laboratory. Then, after the pyloric antrum was removed, the gastric corpus mucosa was separated by a spatula and then minced into 2 to 3 mm^3 pieces in BME (Basal Medium Eagle). Thereafter, these pieces were shaken at 120 to 130 cycles/minute for 15 minutes at 37° C. in BME 60 ml containing 280 U/ml of dispase and 30 to 50 U/ml of collagenase. Here, the concentration of collagenase was appropriately changed for each lot in view of the state of cells. The pieces were washed twice with EBSS (Earle's Balanced Salt Solution) containing 1 mM of EDTA and then shaken in MEM (Minimum Essential Medium) containing 1 mM of EDTA at 37° C. for 5 minutes. Subsequently, they were shaken in the dispase and collagenase having the same concentrations as those mentioned above for 15 minutes so as to remove the supernatant and then further shaken at 37° C. for 50 to 60 minutes at 120 to 130 cycles/minute. Then, after being washed twice with HBSS, Ham F12 containing 2% of Ultrocer G™ was used to attain the concentration of 1×10^6 cells/ml. Thus formed suspension was dispensed in each well of a 96-well plate by 200 μl. The plate was incubated in the atmosphere composed of 5% CO2 and 95% air at 37° C. for three days so as to attain a confluent state and then subjected to MTT assay.
The sample compound was dissolved in DMSO so as to attain a concentration of 10^-2 M and then diluted with HBSS containing 2% of Ultrocer G™ so as to attain a final concentration of 10^-4 M. To each group, which 8 wells were used for, 10 μl of MTT reagent was added immediately after 100 μl of the medium in each well was exchanged for same volume of the resulting solution of the sample compound. After being incubated in an atmosphere composed of 5% CO2 and 95% air at 37° C. for 4 hours, thus formed solution was centrifuged and then its supernatant was discarded. Subsequently, 100 μl of 100% ethanol was added to the residue so as to dissolve MTT formazan. Then, the absorbance (OD: 570 to 630) was measured by a microplate reader. This method utilizes a phenomenon in which MTT is changed to MTT formazan only by mitochondria of living cells so as to change color.
The cell damaging or cell protecting effect of the sample compound at the final concentration of 10^-4 M was expressed as cell damaging rate (%) as follows:
cell damaging rate (%)=(1-(absorbance in sample group/absorbance in control
Accordingly, the smaller value is better in the cell damaging rate.

[3] = system: stress ulcer formation in rats; assay: WIS: Restraint and Water Immersion Stress-Induced Ulcer Inhibition Test; type: in vivo, rat (male Crj:SD or Slc:SD); conditions: 100 mg/kg oral, 10 minutes before 7 h restraint and water immersion (21° C.)
Experimental: WIS: Restraint and Water Immersion Stress-Induced Ulcer Inhibition Test
The degree of inhibition of the stress ulcer formation is tested.
Male Crj:SD or Slc:SD rats (6 to 7-week-old) were fasted overnight, but allowed free access to water. Each group has 5 to 8 of these rats. The sample compound was dissolved or suspended in an aqueous solution of 0.3% sodium carboxymethylcellulose or 0.05% Tween 80 and then was orally administered (100 mg/10 ml/kg). To a control group, the vehicle was administered. 10 minutes later, the rats were placed in a stress cage and immersed to the level of xipfoid process in a water bath (21° C.) for 7 hours. At the end of the stress, the rats were sacrificed by inhalation of ether or carbon dioxide. Then, the stomach of each was removed, inflated by injecting 10 ml of 5% formalin neutral buffer solution, and immersed in 1% formalin neutral buffer solution for 30 minutes or more to be fixed. The stomach was incised along the greater curvature and then the length of each erosion in the glandular portion was determined under dissecting microscope. The sum of the length of erosions per stomach was defined as ulcer index (UI).
The effect obtained when 100 mg/kg of the sample compound had been administered was expressed as ulcer formation inhibitory rate (%) as follows:
ulcer formation inhibitory rate (%)=(1-(UI in sample group/UI in control

Row | Compound | inhibition at 10 µM [1] [%] | cytotoxicity at 4 h, 100 µM [2] [%] | WIS: ulcer formation inhibitory rate [3] [%]
1 | CCN(CC)CCNC(=O)c1ccccc1OC/C=C(\C)CCC=C(C)C [Example 2] | 99.9 | 28 | 82
2 | CCN(CC)CCNC(=O)c1ccc(OCC=C(C)C)cc1 [Example 3] | 70.8 | 1 | 88
3 | CCN(CC)CCNC(=O)c1ccc(OC/C=C(/C)CCC=C(C)C)cc1 [Example 5] | 109 | 30 | 90
4 | CCC(C)N(CCNC(=O)c1ccc(OC/C=C(\C)CCC=C(C)C)cc1)C(C)CC (centres unmarked) [Example 8] | 99.9 | 38 | 58
5 | CC(C)=CCC/C(C)=C/COc1ccccc1C(=O)NCCN(C)C [Example 13] | 96.6 | 19 | 75
6 | CCN(CC)CCNC(=O)c1ccc(OC/C=C(\C)CCC=C(C)C)cc1OC/C=C(\C)CCC=C(C)C [Example 15] | 96.5 | 44 | 92
7 | CCN(CC)CCNC(=O)c1ccc(OCC=C(C)C)cc1OCC=C(C)C [Example 20] | 100 | 28 | 67
8 | CCN(CC)CCNC(=O)c1cc(OCC=C(C)C)ccc1OCC=C(C)C [Example 21] | 100 | 36 | 77
9 | CCN(CC)CCNC(=O)c1ccc(OCC=C(C)C)c(OCC=C(C)C)c1 [Example 22] | 99.8 | 16 | 81
10 | CCN(CC)CCNC(=O)c1ccccc1SC/C=C(\C)CCC=C(C)C [Example 25] | 96.1 | 19 | 82
11 | CC(C)=CCC/C(C)=C/CN(C/C=C(\C)CCC=C(C)C)c1ccc(C(=O)NCCN(C(C)C)C(C)C)cc1 [Example 27] | 38.5 | 39 | 45
12 | CCN(CC)CCNC(=O)c1ccc(OC)c(OC/C=C(\C)CCC=C(C)C)c1 [Example 29] | 100 | 49 | 81
13 | CCN(CC)CCNC(=O)c1cccc(OC)c1OC/C=C(\C)CCC=C(C)C [Example 31] | 100 | 17 | 73
14 | CCN(CC)CCNC(=O)c1ccc(OC)cc1OC/C=C(\C)CCC=C(C)C [Example 32] | 100 | 28 | 73
15 | CCN(CC)CCNC(=O)c1cc(OC)ccc1OC/C=C(\C)CCC=C(C)C [Example 33] | 100 | 26 | 67
16 | CCN(CC)CCNC(=O)c1cc(F)ccc1OC/C=C(\C)CCC=C(C)C [Example 35] | 105 | 25 | 81
17 | CCN(CC)CCNC(=O)c1ccc(OC/C=C(\C)CCC=C(C)C)nc1 [Example 50] | 95.2 | 4 | 42
18 | CC(C)=CCC/C(C)=C/COc1ccc(C(=O)NCCN(C(C)C)C(C)C)cn1 [Example 51] | 94.7 | 15 | 72
19 | CCN(CC)CCNC(=O)c1ccc(CC(C)C)c(O)c1 [Example 56] | 53.4 | 11 | 69
20 | CC(C)Cc1cc(C(=O)NCCN(C(C)C)C(C)C)ccc1OCc1ccc(F)cc1 [Example 57] | 100 | 43 | 45
21 | CC(C)Oc1ccc(C(=O)NCCN(C(C)C)C(C)C)cc1 [Example 59] | 47.5 | 39 | 89
22 | CCCCCc1ccc(C(=O)NCCN(C(C)C)C(C)C)cc1 [Example 62] | 101 | 40 | 72
23 | CC(C)c1ccc(C(=O)NCCN(C(C)C)C(C)C)cc1 [Example 64] | 72.7 | 39 | 82
24 | CC(C)N(CCNC(=O)c1ccc(NC(C)(C)C)cc1)C(C)C [Example 68] | – | -58 | 79
